In patent publication US11192849B2, “Compounds, compositions, and methods for modulating ferroptosis and treating excitotoxic disorders” (THE TRUSTEES OF COLUMBIA UNIVERSITY IN THE CITY OF NEW YORK, priority 2013, dated 2021):

Assays:
HT-1080 cells [1] = assay: Acridine orange relocalization (lysosomal membrane permeabilization) in HT-1080 cells; type: cell-based, human; settings: acridine orange re-localization
Protocol: 200,000 HT-1080 cells were seeded into 6-well dishes (Corning). The next day, cells were incubated with 25 ng/mL of AO for 15 minutes, then medium was removed and cells were incubated in growth medium for 15 minutes. […] Relocalization of AO from lysosomes (discrete red puncta) to the cytosol (diffuse green color) was determined using an EVOS fl digital inverted fluorescent microscope (Advanced Microscopy Group) equipped with GFP (ex/em 470/525) and RFP (ex/em 531/593) light cubes.

[2] = tested on: C57BL/6 mice, kidney ischemia-reperfusion injury; assay: Kidney model of ischemia-reperfusion injury (IRI); type: in vivo
Protocol: As an initial in vivo study, the effects of Fer-1 and SRS16-86 on serum creatinine, a marker of kidney damage, were evaluated in an ischemia reperfusion injury (IRI) model of kidney failure (FIG. 21).
Organs were dissected as indicated in each experiment and infused with 4% (vol/vol) neutral-buffered formaldehyde, fixated for 48 h, dehydrated in a graded ethanol series and xylene, and finally embedded in paraffin. Stained sections were analyzed using an Axio Imager microscope (Zeiss). Kidney damage was quantified by two experienced pathologists in a double-blind manner on a scale ranging from 0 (unaffected tissue) to 10 (severe organ damage). The following parameters were chosen as indicative of morphological damage to the kidney after ischemia-reperfusion injury (IRI): brush border loss, red blood cell extravasation, tubule dilatation, tubule degeneration, tubule necrosis, and tubular cast formation. These parameters were evaluated on a scale of 0-10, which ranged from not present (0), mild (1-4), moderate (5 or 6), severe (7 or 8), to very severe (9 or 10). Each parameter was determined on at least four different animals.
Induction of kidney IRI was performed via a midline abdominal incision and a bilateral renal pedicle clamping for either 40 min (severe IRI, or “lethal-to-WT” IRI) or 50 min (ultra-severe IRI) using microaneurysm clamps (Aesculab). Throughout the surgical procedure, the body temperature was maintained between 36° C. and 37° C. by continuous monitoring using a temperature-controlled self-regulated heating system (Fine Science Tools). After removal of the clamps, reperfusion of the kidneys was confirmed visually. The abdomen was closed in two layers using standard 6-0 sutures. Sham-operated mice underwent the identical surgical procedures, except that microaneurysm clamps were not applied. To maintain fluid balance, all of the mice were supplemented with 1 mL of prewarmed PBS administered intraperitoneally directly after surgery. All mice were killed 48 h after reperfusion for each experiment. […] All ischemia-reperfusion experiments were performed in a double-blinded manner.

HT-1080 cells [3] = assay: Cytosolic and lipid ROS production (H2DCFDA, C11-BODIPY flow cytometry) in HT-1080 cells; type: cell-based, human; settings: erastin (10 μM)
Protocol: The day before the experiment, 200,000 cells/well were seeded in 6-well dishes (Corning Inc., Corning, N.Y.). The day of the experiment, cells were treated with test compounds for the indicated times, then harvested by trypsinization, resuspended in 500 μL Hanks Balanced Salt Solution (HBSS, Gibco, Invitrogen Corp., Carlsbad, Calif.) containing either H2DCFDA (25 μM), C11-BODIPY(581/591) (2 μM) or MitoSOX (5 μM) (all from Molecular Probes, Invitrogen) and incubated for 10 minutes at 37° C. in a tissue culture incubator. Cells were then resuspended in 500 μL of fresh HBSS, strained through a […] cell strainer (BD Falcon, BD Biosciences, San Jose, Calif.), and analyzed using a flow cytometer (FACSCalibur or Accuri C6, BD Biosciences), which was equipped with 488-nm laser for excitation. Data was collected from the FL1 (H2DCFDA, C11-BODIPY) or FL2 channel (MitoSOX). A minimum of 10,000 cells were analyzed per condition.

HT-1080 cells [4] = assay: Effect of Fer-1 on the lethality of various compounds in HT-1080 cells; type: cell-based, human; settings: resynthesized Fer-1 (0.5 μM)
Protocol: The comparative analysis of the lethal effects of various molecules was conducted as above for the inhibitors experiment with the following modifications. All lethal molecules were tested in a ten point, two-fold dilution series. Inhibitors were made in media at 1× final concentration. The growth media was removed from the plates, and 36 μL media+inhibitor (or DMSO) was added back to the plate+4 μL from the 10× lethal stock plate. Cell viability and modulatory effects (Me) were computed as above, to obtain the maximum deviation from BExp produced by each modulator across the different lethal small molecule concentrations.

HT-1080 cells [5] = assay: LOC library screening and confirmation: suppression of erastin-induced death; type: cell-based; settings: Homo sapiens, LOC library screening and confirmation studies, read-out: EC50, inhibition of erastin-induced ferroptosis
Protocol: The LOC library was screened over the course of several days. 384-well glass bottom assay plates (Corning) were seeded with 1,000 HT-1080 cells/well the day before the experiment. The day of the experiment, LOC mother plates were thawed at room temperature for 1 hour and spun at 1000 rpm for 1 minute prior to use. Using a BioMek liquid handing robot, 2 μL of compound solution from each LOC library mother plate was transferred to a 384 deep well “daughter” plate (Grenier) containing 148 μL of cell culture media. The cell culture media in each assay plate was then removed by flicking and, using a BioMek FX, replaced with 36 μL of growth media containing erastin (5 μM final). To this was added 4 μL of the drug solution from the daughter plate, for a final screening concentration of 5.3 μg/mL for each LOC library compound. 4 wells containing DMSO alone (no erastin), 4 wells containing 100 μM DFO alone (no erastin), 4 wells containing erastin plus DMSO, and 4 wells containing erastin plus 100 μM DFO (positive control) were included as controls on each plate. Each drug daughter plate was aliquoted separately to duplicate assay plates. Plates were then spun briefly (1000 rpm, 5 seconds) and returned to the 37° C. tissue culture incubator. 24 hours later, cell viability was assessed by Alamar Blue as described above.
Candidate hits from the LOC library screen were identified. […]

CCOC(=O)c1ccc(NC2CCCCC2)c(N)c1 [SRS8-28 (Fer-1), ethyl 3-amino-4-(cyclohexylamino)benzoate]
lysosomal membrane destruction in response to H2O2 (HT-1080 cells [1]): did not prevent | serum creatinine in IRI model of kidney failure ([2]; 2 mg/kg IP 30 minutes prior to induction of IRI): effective | functional acute renal failure and structural organ damage after severe IRI ([2]; 40 min ischemia, 48 h after reperfusion, 2 mg/kg i.p.): protected from functional acute renal failure | effect of inhibitor on erastin-induced ROS accumulation (HT-1080 cells [3]): prevent erastin-induced accumulation of cytosolic and lipid ROS | specificity of death inhibition among lethal compounds (HT-1080 cells [4]): specifically inhibited RSL-induced death, but not cell death induced by other oxidative lethal compounds and apoptosis-inducing agents | EC50 (HT-1080 cells [5]): 60 nM
